# What was measured:
# AR 1.0 cells [1] = assay: Potentiation index with doxorubicin titration; format: cell-based, mouse; conditions: for Potentiation Index at RMA concentration 10 nM: Table C2, RMA 10 nM; for Potentiation Index at RMA concentration 30 nM: Table C2, RMA 30 nM; for Potentiation Index at RMA concentration 100 nM: Table C2, RMA 100 nM; for Potentiation Index at RMA concentration 300 nM: Table C2, RMA 300 nM; for Potentiation Index at RMA concentration 500 nM: Table C2, RMA 500 nM
# Outline: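 Doxorubicin IC50 in AR 1.0 cells (MDR subline of EMT6 mouse mammary carcinoma) determined by sulphorhodamine B after 4-day culture across 0.263 nM-17.24 μM, with and without a fixed dose of test compound; their ratio gives the PI.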
# AR 1.0 cells [2] = assay: Drug accumulation assay: daunorubicin accumulation in AR 1.0 cells; format: cell-based; conditions: Mus musculus, 100% = accumulation with verapamil 100 μM, 1 hr, 37° C.
# Outline: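 Daunorubicin accumulation was measured in cells plated 48 h beforehand. These were AR 1.0 cells, an MDR-resistant derivative of mouse EMT6 mammary carcinoma, cultured at 37 °C in 5% CO2 in RPMI 1640 plus 10% foetal calf serum and 2 mM glutamine.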
# AR 1.0 cells [3] = assay: Potentiation of doxorubicin toxicity: proliferation assay (sulphorhodamine B); format: cell-based, mouse
# Description: (a) Selected compounds of formula (I) were examined for their ability to potentiate the toxicity of doxorubicin in AR 1.0 cells.
# [4] = Mus musculus, 96 h, compound alone, four day proliferation, read-out: Compound Toxicity (IC50)
# [5] = with fixed doxorubicin 0.34 μm, four days, 5760 min, read-out: Toxicity with Cytotoxic Agent (IC50)
Compound,IC50 (AR 1.0 cells [2]),Potentiation Index at RMA concentration 10 nM (AR 1.0 cells [1]),Potentiation Index at RMA concentration 30 nM (AR 1.0 cells [1]),IC50 (AR 1.0 cells [3]; [4]),Potentiation Index at RMA concentration 100 nM (AR 1.0 cells [1]),Potentiation Index at RMA concentration 300 nM (AR 1.0 cells [1]),IC50 (AR 1.0 cells [3]; [5]),Potentiation Index at RMA concentration 500 nM (AR 1.0 cells [1])
"COc1cc2c(cc1OC)CN(CCc1ccc(NC(=O)c3cc(C)ccc3NC(=O)c3cnc4ccccc4n3)cc1)CC2 [compound 9543, Quinoxaline-2-carboxylic acid (2-{4-[2-(6,7-dimethoxy-3,4-dihydro-1H-isoquinolin-2-yl)-ethyl]-phenylcarbamoyl}-4-methyl-phenyl)-amide]",70 nM,24,120,900 nM,150,150,8 nM,
COc1cc2c(cc1OC)CN(CCc1ccc(NC(=O)c3ccccc3NC(=O)c3cccc4ccccc34)cc1)CC2 [compound 9470],1300 nM,,,3500 nM,,26,75 nM,90
"COc1cc2c(cc1OC)CN(CCc1ccc(NC(=O)c3ccccc3NC(=O)c3cnc4ccccc4n3)cc1)CC2 [compound 9531, Quinoxaline-2-carboxylic. acid (2-{4-[2-(6,7-dimethoxy-3,4-dihydro-1H-isoquinolin-2-yl)-ethyl]-phenylcarbamoyl}-phenyl)-amide]",35 nM,30,120,1100 nM,150,160,5 nM,
"COc1cc2c(cc1OC)CN(CCc1ccc(NC(=O)c3ccccc3NC(=O)c3cnccn3)cc1)CC2 [compound 9493, Pyrazine-2-carboxylic acid (2-{4-[2-(6,7-dimethoxy-3,4-dihydro-1H-isoquinolin-2-yl)-ethyl]-phenylcarbamoyl}-phenyl)-amide]",220 nM,,,9000 nM,7.6,85,50 nM,200
"COc1cc2c(cc1OC)CN(CCc1ccc(NC(=O)c3ccc(C(F)(F)F)cc3NC(=O)c3cnc4ccccc4n3)cc1)CC2 [compound 9561, Quinoxaline-2-carboxylic acid (2-{4-[2-(6,7-dimethoxy-3,4-dihydro-1H-isoquinolin-2-yl)-ethyl]-phenylcarbamoyl}-5-trifiuoromethyl-phenyl)-amide]",55 nM,14,60,13000 nM,100,,10 nM,
"COc1cc2c(cc1OC)CN(CCNC(=O)c1ccccc1NC(=O)c1ccc3ccccc3c1)CC2 [compound 9295, Naphthalene-2-carboxylic acid {2-[2-(6,7-dimethoxy-3,4-dihydro-1H-isoquinolin-2-yl)-ethylcarbamoyl]-phenyl}-amide]",390 nM,,,40000 nM,,16,600 nM,
"COc1cc2c(cc1OC)CN(CCc1ccc(NC(=O)c3ccccc3NC(=O)c3cnc4ccccc4c3)cc1)CC2 [compound 9544, Quinoline-3-carboxylic acid (2-{4-[2-(6,7-dimethoxy-3,4-dihydro-1H-isoquinolin-2-yl)ethyl]-phenylcarbamoyl}-phenyl)-amide]",50 nM,15,67,1900 nM,120,150,7.7 nM,
"COc1cc2c(cc1OC)CN(CCNC(=O)c1ccc([N+](=O)[O-])cc1NC(=O)c1ccc(C(C)C)cc1)CC2 [compound 9420, 2-(4-Isopropyl-benzoylamino)-N-[2-(6,7-dimethoxy-3,4-dihydro-1H-isoquinolin-2-yl)-ethyl]-4-nitro-benzamide]",1900 nM,,,7000 nM,,,400 nM,25
"CCCCCc1ccc(C(=O)Nc2ccccc2C(=O)NCCN2CCc3cc(OC)c(OC)cc3C2)cc1 [compound 9395, 2-(4-Pentyl-benzoylamino)-N-[2-(6,7-dimethoxy-3,4-dihydro-1H-isoquinolin-2-yl)-ethyl]-benzamide]",1300 nM,,,9000 nM,,,150 nM,21
"COc1cc2c(cc1OC)CN(CCNC(=O)c1ccccc1NC(=O)c1ccsc1)CC2 [compound 9365, Thiophene-3-carboxylic acid {2-[2-(6,7-dimethoxy-3,4-dihydro-1H-isoquinolin-2-yl)-ethylcarbamoyl]-phenyl}-amide]",2000 nM,,,42000 nM,,,800 nM,
"COc1cc2c(cc1OC)CN(CCNC(=O)c1ccc(N)cc1NC(=O)c1ccc(C(C)C)cc1)CC2 [compound 9435, 2-(4-Isopropyl-benzoylamino)-N-[2-(6,7-dimethoxy-3,4-dihydro-1H-isoquinolin-2-yl)-ethyl]-4-amino-benzamide]",1900 nM,,,9000 nM,,,400 nM,
"COc1cc2c(cc1OC)CN(CCc1ccc(NC(=O)c3ccccc3NC(=O)c3ccsc3)cc1)CC2 [compound 9492, Thiophene-3-carboxylic acid (2-{4-[2-(6,7-dimethoxy-3,4-dihydro-1H-isoquinolin-2-yl)-ethyl]-phenylcarbamoyl}-phenyl)-amide]",1000 nM,,,3000 nM,,,20 nM,
"COc1cc2c(cc1OC)CN(CCc1ccc(NC(=O)c3ccccc3NC(=O)c3ccc(OC(C)=O)cc3)cc1)CC2 [compound 9548, Acetic acid 4-(2-{4-[2-(6,7-dimethoxy-3,4-dihydro-1H-isoquinolin-2-yl)-ethyl]-phenylcarbamoyl}-phenylcarbamoyl)-phenyl ester]",4900 nM,,,1800 nM,,,1000 nM,
COc1cc2c(cc1OC)CN(CCNC(=O)c1ccccc1NC(=O)c1ccc(N(C)C)cc1)CC2 [compound 9256],1700 nM,,,40000 nM,,,300 nM,

# Further lines, with some results ahead:
IC50 (AR 1.0 cells [2]),Compound,Potentiation Index at RMA concentration 10 nM (AR 1.0 cells [1]),Potentiation Index at RMA concentration 30 nM (AR 1.0 cells [1]),IC50 (AR 1.0 cells [3]; [4]),Potentiation Index at RMA concentration 100 nM (AR 1.0 cells [1]),Potentiation Index at RMA concentration 300 nM (AR 1.0 cells [1]),IC50 (AR 1.0 cells [3]; [5]),Potentiation Index at RMA concentration 500 nM (AR 1.0 cells [1])
360 nM,"COc1cc2c(cc1OC)CN(CCc1ccc(NC(=O)c3cc(C)ccc3NC(=O)c3cnc4ccccc4c3)cc1)CC2 [compound 9584, Quinoline-3-carboxylic acid (2,-{4-[2-(6,7-dimethoxy-3,4-dihydro-1H-isoquinolin-2-yl)-ethyl]-phenylcarbamoyl}-4-methyl-phenyl)-amide]",2.1,36,8600 nM,,,,
15 nM,"COc1cc2c(cc1OC)CN(CCc1ccc(NC(=O)c3ccc([N+](=O)[O-])cc3NC(=O)c3cnc4ccccc4c3)cc1)CC2 [compound 9581, Quinoline-3-carboxylic acid (2-{4-[2-(6,7-dimethoxy-3,4-dihydro-1H-isoquinolin-2-yl)-ethyl]-phenylcarbamoyl}-5-nitro-phenyl)-amide]",90,300,310 nM,,,,
22 nM,"COc1cc2c(cc1OC)CN(CCc1ccc(NC(=O)c3ccc(F)cc3NC(=O)c3cnc4ccccc4c3)cc1)CC2 [compound 9571, Quinoline-3-carboxylic acid (2-{4-[2-(6,7-dimethoxy-3,4-dihydro-1H-isoquinolin-2-yl)-ethyl]-phenylcarbamoyl}-5-fluoro-phenyl)-amide]",38,100,2000 nM,100,,0.8 nM,
200 nM,"COc1cc2c(cc1OC)CN(CCc1ccc(NC(=O)c3c(F)cccc3NC(=O)c3cnc4ccccc4n3)cc1)CC2 [compound 9564, Quinoxaline-2-carboxylic acid (2-{4-[2-(6,7-dimethoxy-3,4-dihydro-1H-isoquinolin-2-yl)-ethyl]-phenylcarbamoyl}-3-fluoro-phenyl)-amide]",,,400 nM,129,,8 nM,
94 nM,"COc1cc2c(cc1OC)CN(CCc1ccc(NC(=O)c3ccc(C)cc3NC(=O)c3cnc4ccccc4c3)cc1)CC2 [compound 9588, Quinoline-3-carboxylic acid (2-{4-[2-(6,7-dimethoxy-3,4-dihydro-1H-isoquinolin-2-yl)-ethyl]-phenylcarbamoyl}-5-methyl-phenyl)-amide]",6,68,6700 nM,,,,
40 nM,"COc1cc2c(cc1OC)CN(Cc1ccc(NC(=O)c3ccccc3NC(=O)c3cnc4ccccc4c3)cc1)CC2 [compound 9585, Quinoline-3-carboxylic acid {2-[4-(6,7-dimethoxy-3,4-dihydro-1H-isoquinolin-2-ylmethyl)-phenylcarbamoyl]-phenyl}-amide]",1.3,7.2,9200 nM,,,,
930 nM,"CCC(=O)c1cnc(C(=O)Nc2ccccc2C(=O)Nc2ccc(CCN3CCc4cc(OC)c(OC)cc4C3)cc2)cn1 [compound 9569, 5-Propionyl-pyrazine-2-carboxylic acid (2-{4-[2-(6,7-dimethoxy-3,4-dihydro-1H-isoquinolin-2-yl)-ethyl]-phenylcarbamoyl}-phenyl)-amide]",,,190 nM,,,8 nM,
